By IC50 is commonly meant the concentration that gives 50% inhibition.

Structures are written as SMILES. Some results are limits rather than exact numbers.

T1 sequence (Q92847 whole entry): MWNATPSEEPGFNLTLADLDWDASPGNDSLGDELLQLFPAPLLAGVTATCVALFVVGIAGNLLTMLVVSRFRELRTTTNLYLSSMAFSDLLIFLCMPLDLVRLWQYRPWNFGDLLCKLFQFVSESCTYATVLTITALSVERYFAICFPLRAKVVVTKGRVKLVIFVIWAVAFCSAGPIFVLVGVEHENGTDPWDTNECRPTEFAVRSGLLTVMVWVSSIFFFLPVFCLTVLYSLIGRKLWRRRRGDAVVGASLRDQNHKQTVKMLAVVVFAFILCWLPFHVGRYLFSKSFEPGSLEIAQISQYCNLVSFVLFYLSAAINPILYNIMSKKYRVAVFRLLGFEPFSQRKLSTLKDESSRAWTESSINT

The experiment has as its target T1, human GHSR1a (Homo sapiens, UniProt Q92847).
T1 construct: expressed in transfected cells
Description: Aequorin luminescent functional assay (intracellular Ca2+, ghrelin-stimulated). Particulars: stable cell line expressing human GHSR1a and apoaequorin; final ghrelin 3x EC50 (20 nM); read-out: Class (based on IC50 values). On the procedure:
IC50 values of inventive compounds may be assessed as follows. An aequorin (Euroscreen) luminescent assay (Stabels et al., 1997) measuring the intracellular Ca^2+ concentration was used as the functional assay to evaluate the potency of the compounds. A stable cell line, expressing human GHSR1a and apoaequorin in mitochondria was used in the aequorin assay. 5×10^6 cells per mL were incubated at room temperature in HyClone Media (Perbio) supplemented with 2 μM coelenterazine (Molecular Probes). After 2 hrs cells were diluted to 1×10^6 cells per ml in HyClone Medium.
50 μL of the cell suspension was added to each well of a 96-well plate containing 50 μL of compound, diluted in HyClone Medium. The cell suspension/compound mixture was incubated for 30 seconds before 50 μL of a 9× EC50 concentrations of a human ghrelin solution, in HyClone Medium, was injected. The final Ghrelin concentration was 3× EC50 (20 nM). Aequorin luminescence elicited by intracellular Ca^2+ in the cells was recorded for a total of 60 seconds with a microplate luminometer (Microlumate, Berthold). IC50 of the compounds in this assay was calculated with Prism 4.
As to `O=C1c2cc(Oc3ccc(F)cc3F)ccc2CCN1[C@@H](c1cccc(CNCCF)n1)C1CC1` [(R)-2-(cyclopropyl(6-((2-fluoroethylamino)methyl)pyridin-2-yl)methyl)-7-(2,4-difluorophenoxy)-3,4-dihydroisoquinolin-1(2H)-one], the IC50 is at most 10 nM.
With `Cc1cc(F)ccc1Oc1ccc2c(c1)C(=O)N(C(C(=O)NC1CCN(Cc3ccccc3)CC1)C(C)C)Cc1ncc(C)n1-2` (centres unmarked) [N-(1-benzyl-piperidin-4-yl)-2-[8-(4-fluoro-2-methyl-phenoxy)-1-methyl-6-oxo-4H,6H-3,5,10b-triaza-benzo[e]azulen-5-yl]-3-methyl-butyramide], the IC50 is at most 10 nM.
On to `O=C1c2cc(Oc3ccc(F)cc3F)ccc2CCN1[C@@H](c1cccc(CNCC(F)F)n1)C1CC1` [(R)-2-(cyclopropyl(6-((2,2-difluoroethylamino)methyl)pyridin-2-yl)methyl)-7-(2,4-difluorophenoxy)-3,4-dihydroisoquinolin-1(2H)-one], for which the IC50 was at most 10 nM.
In the case of `CC(C)(CO)NCc1cccc([C@@H](C2CC2)N2CCc3ccc(Oc4ccc(F)cc4F)cc3C2=O)n1` [(R)-2-(cyclopropyl(6-((1-hydroxy-2-methylpropan-2-ylamino)methyl)pyridin-2-yl)methyl)-7-(2,4-difluorophenoxy)-3,4-dihydroisoquinolin-1(2H)-one] it was at most 10 nM; in that of `CCc1ccccc1Oc1ccc2c(c1)C(=O)N(C(C(=O)N1CCC(NCc3ccc(F)cc3)CC1)C(C)C)CC(=O)N2` (centres unmarked) [7-(2-ethyl-phenoxy)-4-{1-[4-(4-fluoro-benzylamino)-piperidine-1-carbonyl]-2-methyl-propyl}-3,4-dihydro-1H-benzo[e][1,4]diazepine-2,5-dione], 10 to 50 nM; in that of `O=C1c2cc(Oc3ccc(F)cc3F)ccc2CCN1[C@@H](c1cccc(CNCC2CC2)n1)C1CC1` [(R)-2-(cyclopropyl(6-((cyclopropylmethylamino)methyl)pyridin-2-yl)methyl)-7-(2,4-difluorophenoxy)-3,4-dihydroisoquinolin-1(2H)-one], at most 10 nM.
In the case of `CC(C)[C@H](C(=O)NC1CCN(Cc2ccccc2)CC1)N1CC(=O)Nc2ccc(Oc3ccc(F)cc3)cc2C1=O` it was 10 to 50 nM.
As for `Cc1ccccc1Oc1ccc2c(c1)C(=O)N([C@@H](C(=O)N1CCC(N[C@@H]3CCc4ccccc43)CC1)C(C)C)CCN2`, the figure is at most 10 nM; as for `CC(C)C(C(=O)N1CCC(NC2CC2)CC1)N1CC(=O)Nc2ccc(Oc3ccccc3C(C)(C)C)cc2C1=O` (centres unmarked) [7-(2-tert-butyl-phenoxy)-4-[1-(4-cyclopropylamino-piperidine-1-carbonyl)-2-methyl-propyl]-3,4-dihydro-1H-benzo[e][1,4]diazepine-2,5-dione], 10 to 50 nM.
On to `Cc1cccc(C)c1Oc1ccc2c(c1)C(=O)N([C@@H](C(=O)N1CCC(NC(C)c3ccccc3)CC1)C(C)C)CC(=O)N2` (some centres unmarked), for which the half-maximal inhibitory concentration (IC50) is at most 10 nM.
For `CC(C)C(COC(=O)NC1CCN(Cc2ccccc2)CC1)N1CC(=O)Nc2ccc(Oc3ccc(F)cc3)cc2C1=O` (centres unmarked) [(1-benzyl-piperidin-4-yl)-carbamic acid 2-[7-(4-fluoro-phenoxy)-2,5-dioxo-1,2,3,5-tetrahydro-benzo[e][1,4]diazepin-4-yl]-3-methyl-butyl ester], the IC50 was 50 to 500 nM.
In the case of `CC(C)C(CCC1CCN(CC2CC2)CC1)N1CCc2ccc(Oc3ccc(F)cc3F)cc2C1=O` (centres unmarked) [2-{1-[2-(1-Cyclopropylmethyl-piperidin-4-yl)-ethyl]-2-methyl-propyl}-7-(2,4-difluoro-phenoxy)-3,4-dihydro-2H-isoquinolin-1-one] it was at most 10 nM; in that of `O=C1c2cc(Oc3ccc(F)cc3F)ccc2CCN1[C@@H](c1cccc(CNC2CC2)n1)C1CC1` [(R)-2-(cyclopropyl(6-((cyclopropylamino)methyl)pyridin-2-yl)methyl)-7-(2,4-difluorophenoxy)-3,4-dihydroisoquinolin-1(2H)-one], at most 10 nM.
In the case of `Cc1cccc(C)c1Oc1ccc2c(c1)C(=O)N(C(C(=O)N1CCC(NCc3ccc(F)cc3)CC1)C(C)C)CC(=O)N2` (centres unmarked) [7-(2,6-dimethyl-phenoxy)-4-{1-[4-(4-fluoro-benzylamino)-piperidine-1-carbonyl]-2-methyl-propyl}-3,4-dihydro-1H-benzo[e][1,4]diazepine-2,5-dione], the IC50 was at most 10 nM.
In the case of `CC(C)C(C(=O)N1CCC(NCc2ccc(F)cc2)CC1)N1CCc2ccc(Oc3ccc(F)cc3F)cc2C1=O` (centres unmarked) [7-(2,4-difluoro-phenoxy)-2-{1-[4-(4-fluoro-benzylamino)-piperidine-1-carbonyl]-2-methyl-propyl}-3,4-dihydro-2H-isoquinolin-1-one], the IC50 was at most 10 nM.
`CC(C)C(C(=O)N1CCC(NCCc2ccc(F)cc2)CC1)N1CC(=O)Nc2ccc(Oc3ccccc3C(C)(C)C)cc2C1=O` (centres unmarked) [7-(2-tert-butyl-phenoxy)-4-(1-{4-[2-(4-fluoro-phenyl)-ethylamino]-piperidine-1-carbonyl}-2-methyl-propyl)-3,4-dihydro-1H-benzo[e][1,4]diazepine-2,5-dione]: the IC50 lay within 50 to 500 nM.
For `Cc1ccccc1Oc1ccc2ncn(C(C(=O)NC3CCN(Cc4ccccc4)CC3)C(C)C)c(=O)c2c1` (centres unmarked) [N-(1-benzyl-piperidin-4-yl)-3-methyl-2-(4-oxo-6-o-tolyloxy-4H-quinazolin-3-yl)-butyramide], the IC50 is 10 to 50 nM.
Take `CC(C)C(COC(=O)C1CCN(Cc2ccccc2)CC1)N1CC(=O)Nc2ccc(Oc3ccc(F)cc3)cc2C1=O` (centres unmarked) [1-benzyl-piperidine-4-carboxylic acid 2-[7-(4-fluoro-phenoxy)-2,5-dioxo-1,2,3,5-tetrahydro-benzo[e][1,4]diazepin-4-yl]-3-methyl-butyl ester]: the IC50 lay in the range of 10 to 50 nM.
In the case of `CC(C)C(C(=O)N1CCC(NCC2CC2)CC1)N1CCc2ccc(Oc3ccc(F)cc3F)cc2C1=O` (centres unmarked) [2-{1-[4-(cyclopropylmethyl-amino)-piperidine-1-carbonyl]-2-methyl-propyl}-7-(2,4-difluoro-phenoxy)-3,4-dihydro-2H-isoquinolin-1-one], the IC50 is at most 10 nM.
With `O=C1c2cc(Oc3ccc(F)cc3F)ccc2CCN1C(c1cccc(CCNCC2CC2)c1)C1CC1` (centres unmarked) [2-(cyclopropyl-{3-[2-(cyclopropylmethyl-amino)-ethyl]-phenyl}-methyl)-7-(2,4-difluoro-phenoxy)-3,4-dihydro-2H-isoquinolin-1-one], the IC50 was at most 10 nM.
In the case of `CC(C)C(COC1CCN(CC2CC2)CC1)N1CCc2ccc(Oc3ccc(F)cc3F)cc2C1=O` (centres unmarked) [2-[1-(1-cyclopropylmethyl-piperidin-4-yloxymethyl)-2-methyl-propyl]-7-(2,4-difluoro-phenoxy)-3,4-dihydro-2H-isoquinolin-1-one], the IC50 is at most 10 nM.
With `CC(C)C(CC1CCC(NC2CC2)CC1)N1CCCc2ccc(Oc3ccc(F)cc3F)cc2C1=O` (centres unmarked) [2-[1-(4-Cyclopropylamino-cyclohexylmethyl)-2-methyl-propyl]-8-(2,4-difluoro-phenoxy)-2,3,4,5-tetrahydro-benzo[c]azepin-1-one], the IC50 was at most 10 nM.
On to `CC(C)C(C(=O)N1CCC(NCc2ccc(F)cc2)CC1)N1CC=Cc2ccc(Oc3ccc(F)cc3F)cc2C1=O` (centres unmarked) [8-(2,4-difluoro-phenoxy)-2-{1-[4-(4-fluoro-benzylamino)-piperidine-1-carbonyl]-2-methyl-propyl}-2,3-dihydro-benzo[c]azepin-1-one], for which the IC50 is at most 10 nM.

The values are drawn from patent publication US7572783B2 (Amgen Inc., priority 2004, dated 2009).
